Experimental data reported in US4654348A, “Pyrazolo[4,3-d]pyrimidine derivative, process for its production, antihyperlipidemic agent containing it, its intermediate, and process for the production of the intermediate” (Nissan Chemical Industries Ltd., priority 1984, dated 1987).
Each block holds one compound with its values, some of them ahead of it.

What was measured:
[1] = system: emulsion-induced hyperlipidemic rats; test: Test 1: antihyperlipidemic activity in emulsion-induced hyperlipidemic rats (serum Chol, HDL-Chol, liver weight); format: in vivo, male S.D. rats; settings: 3 days, vs control; for Degree of hepatomegaly (change rate of the liver weight): liver weight per 100 g body weight, 300 mg/kg/day
Method: The antihyperlipidemic activity in emulsion-induced hyperlipidemic rats:
Male S.D. rats weighing 80-90 g (4 weeks old) were used. They were divided into groups of 5 to 6 rats each. The test compounds suspended in 0.5% CMC-Na(carboxymethyl cellulose sodium salt) were given to the rats in a daily dose of 4 ml/kg (i.e. 300 mg/kg of the test compounds) via stomach tube every 10:00 a.m. After 30 min., lipids emulsion having the following composition was orally given to the rats in an amount of 2.5 ml per rat.
Cholic acid sodium salt 10.0 g
During the experimental period of 3 days, the rats were fed on a standard commercial diet and water ad libitum. […] The total cholesterol and HDL cholesterol were measured.
The weight of the liver was measured. To the control group, only the aqueous CMC-Na solution and the lipids emulsion were given.
The fractionation of lipoproteins was conducted by a dextran sulfate-MgCl2 precipitation method.
Cholesterol in serum was measured by means of a cholesterol measuring kit (Cholesterol C-Test Wako, manufactured by Wako Junyaku Co., Ltd.), and cholesterol in HDL was measured by means of NC Hi-Set, manufactured by Nippon Chemiphar Co., Ltd.
Further, the reduction rate of Chol was calculated by the following equation. [formula] where A is the amount of serum Chol (mg/dl) of the control group, and B is the amount of serum Chol (mg/dl) of the group to which the therapeutic agent was administered.
Likewise, the increase rate of HDL-Chol was calculated by the following equation. [formula] where C is the amount of serum HDL-Chol (mg/dl) of the control group, and D is the amount of serum HDL-Chol (mg/dl) of the group to which the therapeutic agent was administered.
The degree of hepatomegaly (i.e. the change rate of the liver weight) was calculated by the following equation. [formula] where E is the liver weight (g) per 100 g of the body weight of the control group, and F is the liver weight (g) per 100 g of the body weight of the group to which the therapeutic agent was administered.

male ddY mice = test: Test 2: Acute toxicity (mortality after seven days); format: in vivo; settings: 8000 mg/kg p.o., 10080 min
Method: The test compounds suspended in 0.5% CMC-Na were administered p.o. to male ddY mice. The acute toxicity was determined based on the mortality after seven days. In respect of the compounds of Examples 1, 9, 10 and 11 of the present invention, the mortality was 0% even at a dose of as high as 8000 mg/kg by oral administration.

[2] = in words; cited from earlier work
animals = settings: animal experiments; Svoboda and Azarnoff, Cancer Res., 39, 3419 (1979); cited from earlier work
serum lipid = settings: Science, 193, 903 (1976); J. Lipid Res., 12, 596 (1971); cited from earlier work

Structure (SMILES): CC/C=C\C/C=C\C/C=C\CCCCCCCCOc1c2ncnc(SCC(=O)OCC)c2nn1C [Example 11, 2-Methyl-3-linolenyloxy-7-ethoxycarbonylmethylthio-pyrazolo[4,3-d]pyrimidine]
Increase rate of serum HDL-Chol ([1]; 300 mg/kg/day via stomach tube): 26% | Reduction rate of serum Chol. ([1]; 300 mg/kg/day via stomach tube): 83% | Degree of hepatomegaly (change rate of the liver weight) [1]: +20% | mortality (male ddY mice): 0%

Degree of hepatomegaly (change rate of the liver weight) [1]: +22%
Structure (SMILES): CCOC(=O)C(C)(C)Oc1ccc(Cl)cc1 [Clofibrate, reference compound]
subsidiary ill effects reported [2]: myalgia or hepatic insufficiency, and they are likely to lead to gallstone formation | change in vivo at 300 mg/kg ([1]; Rattus norvegicus, po, 72 h, 300 mg/kg/day via stomach tube, read-out: Increase rate of serum HDL-Chol): 12% | inhibition in vivo at 300 mg/kg ([1]; Rattus norvegicus, po, 72 h, 300 mg/kg/day via stomach tube, read-out: Reduction rate of serum Chol.): 44% | hepatic carcinoma (animals): brings about hepatic carcinoma on animal experiments

Structure (SMILES): Nc1ncnc2[nH]ncc12 [1H-pyrazolo[3,4-d]pyrimidine-4-amine]
serum lipid reduction (serum lipid): function to reduce serum lipid
